In US8138178B2, “Cyclic inhibitors of 11beta-hydroxysteroid dehydrogenase 1” (Vitae Pharmaceuticals, Inc., priority 2008, dated 2012) one finds IC50 and fraction unbound data, which are given here for 13 compounds.

Series [1] has as its target human recombinant cytochrome P450 3A4 (Homo sapiens, UniProt P08684). Put plainly: Biological Test Example 6: CYP3A4 inhibition. It counts as in vitro ADME.
For series [2], the target named is human recombinant cytochrome P450 2C9 (Homo sapiens, UniProt P11712). Put plainly: biochemical.
Series [3] is described as follows: Biological Test Example 5: fraction unbound in human plasma (equilibrium dialysis). It counts as in vitro ADME.
Series [4] has as its target human recombinant cytochrome P450 2C19 (Homo sapiens, UniProt P33261). Put plainly: Biological Test Example 8: CYP2C19 inhibition. It counts as in vitro ADME.

Sequence of human recombinant cytochrome P450 3A4 (P08684 whole entry): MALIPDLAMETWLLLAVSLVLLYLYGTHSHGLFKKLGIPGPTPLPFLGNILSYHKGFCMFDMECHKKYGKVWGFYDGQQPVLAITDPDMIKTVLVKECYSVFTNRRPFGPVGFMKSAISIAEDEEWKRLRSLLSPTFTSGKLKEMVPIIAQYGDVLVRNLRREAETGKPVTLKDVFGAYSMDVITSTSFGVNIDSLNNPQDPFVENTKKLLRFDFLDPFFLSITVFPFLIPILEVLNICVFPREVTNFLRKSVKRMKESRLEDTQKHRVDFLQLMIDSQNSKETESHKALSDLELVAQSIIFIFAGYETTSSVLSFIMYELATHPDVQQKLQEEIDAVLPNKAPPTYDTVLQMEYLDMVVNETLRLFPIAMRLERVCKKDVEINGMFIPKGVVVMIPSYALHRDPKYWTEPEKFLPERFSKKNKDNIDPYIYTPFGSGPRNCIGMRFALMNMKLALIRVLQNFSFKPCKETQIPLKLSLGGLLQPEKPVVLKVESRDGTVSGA
Sequence of human recombinant cytochrome P450 2C9 (P11712 whole entry): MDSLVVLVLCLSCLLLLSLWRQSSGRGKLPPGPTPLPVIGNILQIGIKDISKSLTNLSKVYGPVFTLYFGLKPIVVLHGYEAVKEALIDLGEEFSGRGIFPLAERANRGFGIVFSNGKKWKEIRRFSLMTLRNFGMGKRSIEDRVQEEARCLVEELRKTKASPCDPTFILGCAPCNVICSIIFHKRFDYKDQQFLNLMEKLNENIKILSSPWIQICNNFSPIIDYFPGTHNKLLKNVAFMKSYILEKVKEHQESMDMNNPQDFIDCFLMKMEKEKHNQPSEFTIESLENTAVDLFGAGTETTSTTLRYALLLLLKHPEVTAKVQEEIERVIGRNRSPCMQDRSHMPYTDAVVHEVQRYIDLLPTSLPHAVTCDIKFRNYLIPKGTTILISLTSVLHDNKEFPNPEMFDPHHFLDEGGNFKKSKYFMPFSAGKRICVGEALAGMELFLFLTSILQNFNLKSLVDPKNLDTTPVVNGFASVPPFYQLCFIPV
Sequence of human recombinant cytochrome P450 2C19 (P33261 whole entry): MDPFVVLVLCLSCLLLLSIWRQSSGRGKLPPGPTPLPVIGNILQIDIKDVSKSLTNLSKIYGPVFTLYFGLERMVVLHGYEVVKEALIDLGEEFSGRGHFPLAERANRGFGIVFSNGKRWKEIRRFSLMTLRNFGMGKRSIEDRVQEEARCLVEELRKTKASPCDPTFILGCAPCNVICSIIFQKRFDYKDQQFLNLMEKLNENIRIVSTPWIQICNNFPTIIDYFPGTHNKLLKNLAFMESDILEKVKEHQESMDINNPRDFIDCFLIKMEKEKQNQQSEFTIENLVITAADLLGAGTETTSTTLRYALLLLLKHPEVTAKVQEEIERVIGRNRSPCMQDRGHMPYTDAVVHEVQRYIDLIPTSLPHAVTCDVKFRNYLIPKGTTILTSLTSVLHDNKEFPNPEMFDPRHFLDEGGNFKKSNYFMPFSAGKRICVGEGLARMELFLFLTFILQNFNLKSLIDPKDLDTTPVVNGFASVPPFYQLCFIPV

For the compound `C[C@@H](c1ccc(-c2ccc(=O)n(C)c2)cc1)N1CC[C@](CC(C)(C)O)(c2ccccc2F)OC1=O` [Example 23, (S)-6-(2-fluorophenyl)-6-(2-hydroxy-2-methylpropyl)-3-((S)-1-(4-(1-methyl-6-oxo-1,6-dihydropyridin-3-yl)phenyl)ethyl)-1,3-oxazinan-2-one], the IC50 in series [1] and in series [2] was greater than 50 µM throughout. `C[C@@H](c1ccc(-c2ccc(=O)n(C)c2)cc1)N1CC[C@](CCCO)(c2ccccc2)OC1=O` [Example 30, (R)-6-(3-hydroxypropyl)-3-((S)-1-(4-(1-methyl-6-oxo-1,6-dihydropyridin-3-yl)phenyl)ethyl)-6-phenyl-1,3-oxazinan-2-one]: in series [3], the fraction unbound (commonly the share of the substance not bound to proteins or other matrix) came to 0.139. The same measure, in the same setting: the result for `C[C@@H](c1ccc(-c2ccc(=O)n(C)c2)cc1)N1CC[C@](CC(C)(C)O)(c2ccc(F)cc2)OC1=O` [Example 32, (S)-6-(4-fluorophenyl)-6-(2-hydroxy-2-methylpropyl)-3-((S)-1-(4-(1-methyl-6-oxo-1,6-dihydropyridin-3-yl)phenyl)ethyl)-1,3-oxazinan-2-one] reads 0.123. `C[C@@H](c1ccc(-c2ccc(=O)n(C)c2)cc1)N1CC[C@](CC(C)(C)O)(c2ccccc2)OC1=O` [Example 37, (S)-6-(2-hydroxy-2-methylpropyl)-3-((S)-1-(4-(1-methyl-6-oxo-1,6-dihydropyridin-3-yl)phenyl)ethyl)-6-phenyl-1,3-oxazinan-2-one] displayed a fraction unbound in series [3] of 0.146. On the same count and under the same terms, under `C[C@@H](c1ccc(-c2ccn(C)c(=O)c2)cc1)N1CC[C@](CC(C)(C)O)(c2ccccc2)OC1=O` [Example 48, (S)-6-(2-hydroxy-2-methylpropyl)-3-((S)-1-(4-(1-methyl-2-oxo-1,2-dihydropyridin-4-yl)phenyl)ethyl)-6-phenyl-1,3-oxazinan-2-one] stands 0.087. In the case of `CC[C@@H](c1ccc(-c2ccc(=O)n(CC)c2)cc1)N1CC[C@](CC(C)(C)O)(c2ccccc2)OC1=O` [Example 52, (S)-3-((S)-1-(4-(1-ethyl-6-oxo-1,6-dihydropyridin-3-yl)phenyl)propyl)-6-(2-hydroxy-2-methylpropyl)-6-phenyl-1,3-oxazinan-2-one], the fraction unbound in series [3] is 0.09. Moreover, the concentration for half-maximal inhibition (IC50) (in general, the concentration needed to halve the response being measured) in series [1] stood at 48 µM; in series [4], 8 µM. `CCn1cc(-c2ccc([C@H](C)N3CC[C@](CC(C)(C)O)(c4ccccc4)OC3=O)cc2)ccc1=O` [Example 53, (S)-3-((S)-1-(4-(1-ethyl-6-oxo-1,6-dihydropyridin-3-yl)phenyl)ethyl)-6-(2-hydroxy-2-methylpropyl)-6-phenyl-1,3-oxazinan-2-one] came in with a fraction unbound in series [3] of 0.128. Still for that read-out and setting: under `CC[C@@H](c1ccc(-c2ccc(=O)n(C)c2)cc1)N1CC[C@](CC(C)(C)O)(c2ccccc2)OC1=O` [Example 54, (S)-6-(2-hydroxy-2-methylpropyl)-3-((S)-1-(4-(1-methyl-6-oxo-1,6-dihydropyridin-3-yl)phenyl)propyl)-6-phenyl-1,3-oxazinan-2-one] stands 0.091; under `CC[C@@H](c1ccc(-c2ccn(C)c(=O)c2)cc1)N1CC[C@](CC(C)(C)O)(c2ccccc2)OC1=O` [Example 55, (S)-6-(2-hydroxy-2-methylpropyl)-3-((S)-1-(4-(1-methyl-2-oxo-1,2-dihydropyridin-4-yl)phenyl)propyl)-6-phenyl-1,3-oxazinan-2-one], 0.071; under `C[C@@H](c1ccc(-c2ccn(CC(F)(F)F)c(=O)c2)cc1)N1CC[C@](CC(C)(C)O)(c2ccccc2)OC1=O` [Example 66, (S)-6-(2-hydroxy-2-methylpropyl)-3-((S)-1-(4-(2-oxo-1-(2,2,2-trifluoroethyl)-1,2-dihydropyridin-4-yl)phenyl)ethyl)-6-phenyl-1,3-oxazinan-2-one], 0.055. In turn, `C[C@@H](c1ccc(-c2ccn(C3CC3)c(=O)c2)cc1)N1CC[C@](CC(C)(C)O)(c2ccccc2)OC1=O` [Example 75, 3-{(S)-1-[4-(1-Cyclopropyl-2-oxo-1,2-dihydro-pyridin-4-yl)-phenyl]-ethyl}-(S)-6-(2-hydroxy-2-methyl-propyl)-6-phenyl-[1,3]oxazinan-2-one] showed a fraction unbound in series [3] of 0.156. On to `COC[C@]1(c2ccccc2)CCN([C@@H](C)c2ccc(-c3ccc(=O)n(C)c3)cc2)C(=O)O1` [Example 77, (R)-6-Methoxymethyl-3-{(S)-1-[4-(1-methyl-6-oxo-1,6-dihydro-pyridin-3-yl)-phenyl]-ethyl}-6-phenyl-[1,3]oxazinan-2-one], for which the half-inhibitory concentration (IC50) in series [1] and in series [2] was greater than 50 µM in each case.

For the compound “(S)-3-((S)-1-(4-(1-(difluoromethyl)-2-oxo-1,2-dihydropyridin-4-yl)phenyl)ethyl)-6-(2-hydroxy-2-methylpropyl)-6-phenyl-1,3-oxazinan-2-one [Example 5]”, the IC50 in series [1] came out at 29 µM.
